Values quoted from earlier work, collected in patent US20260053767A1, “Hepatoprotective Compositions And Methods” (Jemyll, Ltd., priority 2022, published 2026).

Conditions: reported: adipose tissue inflammation, insulin resistance, non-alcoholic fatty liver disease; cited from earlier work

CCCCCCCCCCCC(=O)O [lauric acid]
effects on the liver and other tissues: significant adverse effects on the liver and other tissues
